# Results taken from US10662193B2, “Carbazole and carboline compounds for use in the diagnosis, treatment, alleviation or prevention of disorders associated with amyloid or amyloid-like proteins” (AC IMMUNE SA, priority 2014, dated 2020).
# pKi: −log10 of the molar value.
# Experiments:
# [1] = molecular target: AD brain-enriched PHF (Homo sapiens, UniProt P10636); experiment: Assay 2 (filter trap): [3H]RefA radio-binding competition assay and Ki on PHF; conditions: [^3H]RefA 10 nM, PHF diluted 1/80, compound 0.12 nM to 50 μM
# Outline: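 Sarkosyl-insoluble PHF enriched from Braak VI AD frontal cortex, diluted 1/80, incubated 45 min at 37 °C with 10 nM [3H]RefA and compound at 2.5 μM. Bound label captured on GF/B filters; percent competition scaled from vehicle (0%) to excess cold RefA (100%), Ki by curve fitting.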
# [2] = molecular target: T1, in vitro aggregated Abeta1-42 (Homo sapiens, UniProt P05067); experiment: Assay 2 (filter trap): [3H]RefA competition and Ki on aggregated Abeta1-42 (selectivity tau versus Abeta); format: binding; conditions: Table 24; fold increase of the Ki on aggregated Abeta1-42 versus PHF
# T1 construct: Abeta1-42 (Bachem, Switzerland) peptide films were re-suspended in 1% DMSO; purchased Bachem, Switzerland
# Procedure: Recombinant human full-length Tau441 (flTau) was expressed in bacteria and purified in the laboratory of Professor Hilal Lashuel (EPFL, Switzerland). A solution of 8 μM (400 μg/mL) flTau in PBS, 10 μM DTT and 5 μM heparin (all from Sigma-Aldrich) was gently mixed (cradled) for 3 days at 37° C. Cradled flTau aggregates were used at a final concentration of 20 μg/mL in all binding assays. Abeta1-42 (Bachem, Switzerland) peptide films were re-suspended in 1% DMSO and diluted in PBS to a 33 μM (150 μg/mL) suspension that was sonicated until complete dissolution. Aggregation process was done at 37° C. for 24 hours. Aggregated Abeta1-42 was used at a concentration of 20 μg/mL in all binding assays.
# AD brain-enriched PHF diluted 1/80 were incubated in the presence of [^3H]RefA at 10 nM and the example compounds of this invention at 2.5 μM (250× excess), for 45 minutes at 37° C. Samples were then analyzed by on GF/B filter plates as described above (in the section “[^3H]RefA radio-binding assay and determination of the dissociation constant (Kd)). Non-specific signal was determined again with an excess of un-labeled RefA and specific binding calculated by subtracting the non-specific signal from the total signal. […]
# Chain of AD brain-enriched PHF (P10636 623-708 limits assumed): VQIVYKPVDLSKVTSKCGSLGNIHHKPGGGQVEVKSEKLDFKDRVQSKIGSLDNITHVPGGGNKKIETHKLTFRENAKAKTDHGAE
# T1 sequence (P05067 672-713 limits assumed): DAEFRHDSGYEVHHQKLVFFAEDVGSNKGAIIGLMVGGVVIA
smiles,measurement,setting,value
Cn1c2ccncc2c2ccc(Nc3ccc(OC(F)F)cc3)nc21 [Example 9],pKi,[1],8.11
same,Fold increase on Abeta1-42 vs PHF,[2],200
Cn1c2ccncc2c2ccc(Nc3cccc(OCCF)c3)nc21 [Example 8],pKi,[1],7.59
same,Fold increase on Abeta1-42 vs PHF,[2],0.5
Cn1c2ccncc2c2ccc(Nc3ccc(F)c(F)c3)nc21 [Example 2],pKi,[1],7.66
